Data set [1] in a line: Weight of nude mice treated with 5-FU and/or Cl-IB-MECA. The data set is classed as in vivo, nude mice (BALB/C origin). As to conditions: FIG. 11; for weight of the mice as compared to control: day 7, 10 and 14, 5-FU 30 mg/kg i.p. five days, or Cl-IB-MECA 6 μg/kg oral every second day, alone.
Data set [2] relates to HCT-116 human colon cancer cells. Description: HCT-116 human colon carcinoma tumor growth in nude mice. The data set is classed as in vivo. As to conditions: for tumor growth (tumor size), combined therapy experiment: 5-FU 30 mg/kg i.p. 5 days, Cl-IB-MECA 5 μg/kg oral every other day, FIGS. 15 and 16. Here is the method:
Tumors were established by subcutaneous injection of 1×10^6 HCT-116 human colon cancer cells to nude mice (BALB/C origin) (Harlan, Jerusalem, Israel). […] Mice that were treated with the vehicle only (PBS). Each group consisted of 10 mice. Tumor growth rate was determined by measuring two orthogonal diameters of each tumor twice a week, and the tumor size was estimated according to the following formula: π/6[D1D2]. The results are depicted in FIG. 14. […] 1×10^6 HCT-116 cells were injected subcutaneously to nude mice. One day later, 5-FU (30 mg/kg body weight, in 0.2 ml PBS) was intraperitoneally injected and subsequently in 4 additional consecutive days. […] Mice that were treated either with the vehicle only (PBS) or with 5-FU served as control. Each group consisted of 10 mice. Tumor growth rate was determined by measuring two orthogonal diameters of each tumor twice a week, and the tumor size was estimated according to the following formula: π/6[D1D2].

In data set [3] the test system is Nb2-11C rat lymphoma cells. Description: Nb2-11C lymphoma cell growth, cell count assay. Type of data set: cell-based. Particulars: for growth inhibition of Nb2-11C lymphoma cells by receptor agonists: 0.01 μM agonist, 48 hours, FIG. 5A; for effect of receptor antagonist on the effect of adenosine on proliferation of Nb2-11C cells: 0.1 μM antagonist in combination with adenosine 25 μM, FIG. 5B. The procedure: Nb2-11C rat lymphoma cells (1.2×10^4 cells/ml) were incubated for 48 hours in 96 well microtiter plates with 1 ml RPMI medium containing 5% fetal bovine serum. Either 25 μM adenosine, 0.01 μM of an adenosine receptor agonists (CPA, an A1RAg; DPMA, an A2RAg or IB-MECA, an A3RAg) or 0.1 μM of an adenosine receptor antagonists (DPCPX, an A1RAn; DMPX, an A2RAn; or MRS-1220, an A3RAn) in combination with adenosine (25 μM) was added.
Cultures containing cells suspended in RPMI medium with 5% FBS served as controls for the above detailed experiment. Extent of cell proliferation was measured by a cell count assay.
Briefly, Nb2-11C lymphoma or bone marrow cells were incubated in the presence of either adenosine, or IB-MECA.

Another data set relates to bone marrow cells. In words: Bone marrow cell proliferation, [3H]-thymidine incorporation assay. The data set is classed as cell-based, C57BL/6J or ICR mice. Particulars: for reduction of the increase in bone marrow cell proliferation as compared to adenosine alone: antagonist in combination with adenosine. The procedure:
Bone marrow cells derived from the femur of C57BL/6J mice were used. The cells were prepared as previously described.
For this purpose, bone marrow cells obtained from the femur of C57BL/6J or ICR mice were first disaggregated by passing through a 25 G needle. Then, the cells (3×10^5 cells/well, in 96 microtiter plates) were incubated with RPMI medium containing 10% fetal bovine serum (FBS) in the presence of adenosine (25 μM). Adenosine or agonists to the A1 and A3 adenosine receptors—CPA (an A1RAg, 0.01 μM), CCPA (an A1RAg, 0.01 μM), or IB-MECA (an A3RAg, 0.01 μM), were added to the bone marrow cultures in the absence of adenosine; an A1 adenosine receptor antagonist, DPCPX (0.1 μM), was added to a bone marrow culture in the presence of adenosine (25 μM).
Cultures containing cells suspended in RPMI medium and 5% FBS served as the control for the above detailed experiment.
[^3H]-Thymidine incorporation assay was used to evaluate the proliferation of the bone marrow cells. For this purpose, after 30 hours of incubation, each well was pulsed with 1 μCi [^3H]-Thymidine. After a total of 48 hours of incubation, the cells were harvested and the [^3H]-Thymidine uptake was determined in an LKB liquid scintillation counter (LKB, Piscataway, N.J., USA).
Cell proliferation was evaluated as described above.
The cumulative effect on the proliferation of bone marrow cells, when using a combination of an A1RAgm1 A3RAg, (CPA and IB-MECA) was evaluated. Cells, after being disaggregated, were incubated in the presence of either adenosine (25 μM), CPA (0.01 μM), IB-MECA (0.01 μM) or a combination of IB-MECA and CPA (each in a concentration of 0.01 μM) and further treated as described above.
In order to compare the effect of adenosine receptor antagonist on the proliferation of bone marrow cells, following the same methodology described above, cells were incubated with adenosine alone or in combination with either DMPX (an A2RAn), DPCPX (an A1RAn), MRS-1220 (an A3RAn) or with a combination of DPCPX and MRS-1220.
Cells pre-treated as described above, were incubated at different concentrations of IB-MECA (1 μM, 0.1 μM or 0.01 μM).
Bone marrow cells (3×10^6 cell/ml) were incubated in wells of 96 microtiter plates. […] Cell proliferation was measured by [^3H]-thymidine incorporation assay.
B-16 melanoma cells (5×10^5 cells/ml) and bone marrow cells (3×10^6 cells/ml) were incubated in wells of 96 microtiter plate. […] Cell proliferation was measured by the [^3H]-thymidine incorporation assay mentioned before.
Murine bone marrow cells were cultured as described above. […] The antagonist was added at a concentration of 10 nM.
Background: Uptake of a labelled nucleoside into DNA is a usual measure of proliferation.

A further data set concerns B-16 melanoma cells. Description: B-16 melanoma cell proliferation, [3H]-thymidine incorporation assay. Particulars: FIG. 18. Type of data set: cell-based, Murine. Here is the method:
B-16 melanoma cells (5×10^5 cells/ml) and bone marrow cells (3×10^6 cells/ml) were incubated in wells of 96 microtiter plate. The culture consisted of RPMI medium supplemented with 10% FTS: […] Cell proliferation was measured by the [^3H]-thymidine incorporation assay mentioned before.

Data set [4] deals with peripheral blood leukocytes and neutrophils. As to conditions: for total white blood cell count after cyclophosphamide: i.p. adenosine 25 μg/kg or IB-MECA 3 or 6 μg/kg at 48 and 72 hours, FIG. 10A. The procedure: A further experiment was conducted in order to evaluate the chemoprotective effect of A3RAg. Mice were treated with cyclophosphamide (50 mg/kg body weight in 0.3 ml PBS). After 48 and 72 hours from administration of the cytotoxic drug, the mice were injected i.p. with adenosine (25 μg/kg body weight) or with IB-MECA (3 or 6 μg/kg body weight in 0.2 ml PBS). The number of white blood cells (WBC) and neutrophils was tested.

For data set [5], the system named is white blood cells and bone marrow nucleated cells. In words: Doxorubicin-induced myelotoxicity in ICR mice. Type of data set: in vivo. Particulars: doxorubicin 10 mg/kg i.p., Cl-IB-MECA 6 μg/kg oral at 24, 48, 72 hours. The procedure: ICR mice were treated with doxorubicin (injection of 10 mg/kg i.p. in 0.5 ml PBS). […] At 72 hours, 96 hours, 120 hours and 144 hours, the mice were sacrificed and blood samples were withdrawn. In addition, bone marrow cells were aspirated from the femur of the mice and a cell count of nucleated cells from this aspirated preparation was made, following staining of the preparation with Coomassie Blue.

In a further data set the test system is white blood cells (WBC). Particulars: CYP 50 mg/kg i.p.; blood 124 hours after chemotherapy; FIG. 13. Here is the method:
Each group consisted of 10 mice and the experiment was repeated twice.
The CYP was injected intraperitoneally in 0.2 ml of PBS which served as the carrier.
Anti-G-CSF antibodies were intravenously injected (in 0.2 ml PBS) 72 hours following the administration of the chemotherapeutic drugs.
Blood samples were withdrawn 124 hours following chemotherapy. White blood cells (WBC) counts were made in a Coulter counter and differential cell counts were carried on smear preparations stained with May-Grundvald-Giemsa solution.

SMILES strings stand for the structures.

Take `O=c1[nH]cc(F)c(=O)[nH]1` [5-FU, 5-fluoro-uracyl, reference compound]: in data set [1], the “weight of the mice as compared to control” value was “profound effect on the weight of the mice”. Also, the “tumor growth (tumor size), combined therapy experiment” value in data set [2] is “marked inhibition of tumor growth”.
Consider `OC[C@H]1O[C@@H](n2cnc3c(NC4CCCC4)ncnc32)[C@H](O)[C@@H]1O` [CPA, N-cyclopentyladenosine], for which, in data set [3], the “growth inhibition of Nb2-11C lymphoma cells by receptor agonists” value (from here on “growth inhibition”) is listed as “No growth inhibition”.
In the case of `CNC(=O)[C@H]1O[C@@H](n2cnc3c(NCc4cccc(I)c4)nc(Cl)nc32)[C@H](O)[C@@H]1O` [Cl-IB-MECA], the “effect on proliferation of bone marrow cells” value in the data set on bone marrow cells (1 or 10 nM, FIG. 20) was “dose dependent”. Moreover, the “proliferation of bone marrow cells” value in the data set with bone marrow cells (Cl-IB-MECA 0.01 μM or 0.1 μM, FIG. 18) is given as “proliferation stimulation effect”. Also, in the data set on B-16 melanoma cells (Cl-IB-MECA 0.01 μM or 0.1 μM), the “proliferation of B-16 melanoma cells” value is “inhibitory effect”. In addition, the “white blood cells and neutrophils after chemotherapy, experiment with Cl-IB-MECA” value in data set [4] (mouse, in vivo) is on record as “chemoprotective activity”. In addition, in data set [1] (Cl-IB-MECA 6 μg/kg oral administered together with 5-FU 30 mg/kg i.p.), the 5-FU-induced weight loss entry is given as “prevented some of this weight loss”. Besides, the “weight of the mice as compared to control” value in data set [1] was “did essentially not give rise to any weight loss”. Moreover, in data set [5] (FIG. 12A), the “number of peripheral white blood cells after doxorubicin” value is recorded as “marked increase”. Moreover, the “number of bone marrow nucleated cells after doxorubicin” value in data set [5] (FIG. 12B) is “marked increase”. Further, the “tumor growth (tumor size), combined therapy experiment” value in data set [2] was “marked inhibition of tumor growth”. Also, in data set [2] (Cl-IB-MECA 6 μg/kg oral every other day, FIG. 14), the “tumor growth (tumor size)” value is “marked inhibition of tumor growth”.
Consider `C#CCn1c(=O)c2c(ncn2C)n(C)c1=O` [DMPX, 3,7-dimethyl-1-propargyl-xantane, reference compound], for which the “proliferation of bone marrow cells, adenosine in combination with receptor antagonist” value in the data set on bone marrow cells (compared to adenosine alone, FIG. 3B) is listed as “increased proliferation of bone marrow cells which even exceeded that of adenosine alone”. The “effect of receptor antagonist on the effect of adenosine on proliferation of Nb2-11C cells” value (“effect of receptor antagonist” below) in data set [3] is reported as “minor, however still significant effect”.
As to `CCCn1c(=O)c2[nH]c(C3CCCC3)nc2n(CCC)c1=O` [DPCPX, 1,3-dipropyl-8-cyclopentylxanthine, reference compound], in the data set with bone marrow cells (FIG. 3B), the “reduction of the increase in bone marrow cell proliferation as compared to adenosine alone” value is given as “about 50%”. The “effect of receptor antagonist” value in data set [3] was “essentially no effect”.
For the compound `COc1cc(OC)cc(C(CNc2ncnc3c2ncn3[C@@H]2O[C@H](CO)[C@@H](O)[C@H]2O)c2ccccc2C)c1` (stereo partly drawn) [DPMA, N^6-[2-(3,5-dimethoxyphenyl)-2-(2-methylphenyl)-ethyl] adenosine], in data set [3], the “growth inhibition” value is “lower growth inhibition”.
With `CNC(=O)[C@H]1O[C@@H](n2cnc3c(NCc4cccc(I)c4)ncnc32)[C@H](O)[C@@H]1O` [IB-MECA, 1-deoxy-1-{6-[({3-iodophenyl}methyl)amino]-9H-purine-9-yl}-N-methyl-β-D-ribofuranuronamide], the “effect on proliferation of bone marrow cells” value is given as “dose dependent” in the data set with bone marrow cells (1 or 10 nM, FIG. 20) and “stimulating the proliferation of bone marrow cells” in the data set with bone marrow cells (FIG. 7B). Moreover, the “stimulation of bone marrow cell proliferation” value in the data set on bone marrow cells (IB-MECA 1 μM, 0.1 μM or 0.01 μM) is reported as “stimulates proliferation of bone marrow in a dose dependent manner”. The “growth inhibition” value in data set [3] was “markedly inhibited”. Moreover, in data set [3] (FIG. 7A), the “effect on growth of tumor cells (Nb2-11C lymphoma)” value is recorded as “inhibiting the growth of tumor cells”. Further, in data set [4] (cyclophosphamide 50 mg/kg, IB-MECA i.p. at 48 and 72 hours), the “complete recovery of total white blood cell count after” value was determined as 168 h. The “total white blood cell count after cyclophosphamide” value in data set [4] (cyclophosphamide 50 mg/kg) is “restored”.
Take `O=C(Cc1ccccc1)Nc1nc2ccc(Cl)cc2c2nc(-c3ccco3)nn12` [MRS-1220, 9-chloro-2-(2-furanyl)-5-[(phenylacetyl)amino] [1,2,4,]-triazolo[1,5-c]quinazoline]: in the data set on bone marrow cells (FIG. 3B), the “reduction of the increase in bone marrow cell proliferation as compared to adenosine alone” value is reported as “about 50%”. Besides, in data set [3], the “effect of receptor antagonist” value is “substantially abolished”. For the same compound, the “therapeutic effect of A3RAg (IB-MECA) when A3 receptor antagonist employed” value in data set [3] (FIGS. 7A–7B, tumor and normal cells) is reported as “reversed”.
For the compound `CCCOC(=O)c1c(-c2ccccc2)nc(CC)c(C(=O)SCC)c1CCC` [MRS-1523, reference compound], the “proliferation of bone marrow cells in the presence of MRS-1523” value with bone marrow cells (with Cl-IB-MECA 0.01 μM or 0.1 μM, FIG. 18) is given as “unchanged versus control”. Also, the “proliferation of B-16 melanoma cells in the presence of MRS-1523” value in the data set on B-16 melanoma cells (with Cl-IB-MECA 0.01 μM or 0.1 μM) was “unchanged versus control”.
Turning to `Nc1ncnc2c1ncn2[C@@H]1O[C@H](CO)[C@@H](O)[C@H]1O` [adenosine], the “total white blood cell count after cyclophosphamide” value in data set [4] (cyclophosphamide 50 mg/kg) is given as “restored”.
As to `O=P1(N(CCCl)CCCl)NCCCO1` (stereo not drawn) [cyclophosphamide, Cyclophosphamide, reference compound], in data set [4] (cyclophosphamide 50 mg/kg only), the “number of peripheral blood leukocytes and neutrophils, cytotoxic drug only” value was “decline in the number of peripheral blood leukocytes and neutrophils”. Besides, the “number of peripheral blood WBC, cyclophosphamide only” value in the data set on white blood cells (WBC) is on record as “decline in the number of peripheral blood WBC”.
